Results as given in US12428370B2, “Haloallylamine dual amine oxidase inhibitors” (Syntara Limited, priority 2020, dated 2025).
Counter-ions that a name gives are not always drawn.

Tests used:
Rat Brain Tissue MAO-B = target: T1, Rat Brain Tissue MAO-B (Rattus norvegicus, UniProt P19643); assay: Rat brain tissue MAO-B activity after oral administration; type: in vivo, Sprague Dawley rats; conditions: single oral dose 0.6 mg/kg, Sprague Dawley rat brain tissue, FIG. 3
T1 construct: Brain tissue was homogenized in ice-cold Tris buffer; from tissue; host or cells: brain of Sprague Dawley rats (mitochondrial extract)
T1 sequence (P19643 1-520): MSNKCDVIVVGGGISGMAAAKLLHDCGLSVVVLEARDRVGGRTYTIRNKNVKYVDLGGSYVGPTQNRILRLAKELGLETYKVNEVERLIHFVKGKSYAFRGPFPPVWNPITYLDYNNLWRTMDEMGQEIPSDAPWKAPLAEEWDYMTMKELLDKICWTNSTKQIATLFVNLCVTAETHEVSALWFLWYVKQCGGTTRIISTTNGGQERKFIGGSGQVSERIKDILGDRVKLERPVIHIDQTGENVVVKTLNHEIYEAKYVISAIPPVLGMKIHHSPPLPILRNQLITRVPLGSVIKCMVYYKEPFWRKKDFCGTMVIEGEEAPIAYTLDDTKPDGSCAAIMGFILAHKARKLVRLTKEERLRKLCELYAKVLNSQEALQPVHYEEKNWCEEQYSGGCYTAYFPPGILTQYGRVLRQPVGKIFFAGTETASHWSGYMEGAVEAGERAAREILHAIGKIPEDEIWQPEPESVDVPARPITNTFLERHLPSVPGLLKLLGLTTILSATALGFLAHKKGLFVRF
Description: Sprague Dawley rats were orally administered the compound under study and sacrificed at various time points and gonadal fat and brain tissue collected.
Brain tissue was homogenized in ice-cold Tris buffer (10 mM Tris·HCl, 0.5 mM EDTA, sucrose 250 mM, pH 7.4). Homogenate was then centrifuged at 4,000 rpm for 3 minutes at 4° C. The resultant supernatant was transferred and centrifuged again at 4,000 rpm for 3 minutes at 4° C. Process repeated one last time, this time at 10,000 rpm for 8 minutes. Supernatant discarded and the resultant pellet containing the mitochondrial extract re-suspended in 0.1 M sodium phosphate buffer solution (1:3 ratio). MAO-B activity was determined by using a specific MAO-A inhibitor (e.g. clorgyline) and a SSAO/VAP-1 inhibitor (e.g. semicarbazide) to establish the high signal. Low signal was established as for the adipose tissue assay.
Activity of the treated samples was analyzed using the fluorometric method described in EXAMPLE 9 for SSAO/VAP-1 activity and EXAMPLE 10 for MAO-B.

[1] = test system: mdx mice (C57BL/10ScSn-Dmdmdx/J); assay: Mouse model of Duchenne muscular dystrophy, Compound 1; type: in vivo; conditions: 4.8 mg/kg/day oral
Description: Three-months old mdx mice (C57BL/10ScSn-Dmdmdx/J) received daily doses of Compound 1 (in a range of 1-6 mg/kg) administered in the drinking water for thirty days. Untreated, age-matched animals were used as controls. A second cohort of mice aged 10 months-old received daily doses of Compound 1 (in a range of 1-6 mg/kg) administered in the drinking water for ninety days. Untreated, age-matched animals were used as controls.
After the end of each treatment period, animals were sacrificed by cervical dislocation and the skeletal muscle and the heart (minus the atria) collected, flash-frozen in isopentane pre-cooled with liquid nitrogen and stored at −80° C. 12 μm sections from the diaphragm muscle were prepared with a cryotome; multiple serial slides were prepared, containing sections from at least three different levels. The same procedure was used to prepare heart transverse sections.
The amount of the neutrophil and macrophage infiltration, reactive oxygen species (ROS) present and the percentage of fibrotic tissue, was determined as described in EXAMPLE 17.

[2] = test system: Salmonella typhimurium strains TA98, TA100 and Escherichia. coli WP2 uvrA pKM101; assay: Miniaturized bacterial reverse mutagenicity screening assay; type: cell-based; conditions: 7.81-1000 μg/well, presence and absence of S9 metabolic activation
Description: Compound 1 was tested for mutagenic potential in a miniaturized reverse mutation assay using Salmonella typhimurium strains TA98, TA100 and Escherichia. coli WP2 uvrA pKM101 in the presence and absence of a metabolic activation system. The test article was formulated in dimethylsulfoxide (DMSO) at nominal concentration of 50 mg/mL and serial dilutions were made from this stock solution. Final dosing concentrations were 1000, 500, 250, 125, 62.5, 31.3, 15.6 and 7.81 μg/well for the test article. Metabolic activation was provided using an S9 mix containing 10% v/v Aroclor-1254-induced rat liver S9 (Regensys System reagents, Moltox, Boone, NC).

## NC/C(=C\F)C1Cc2ccccc2O1 (single isomer, unassigned; (-)) [PXS-5131, (−)-(E)-2-(2,3-Dihydrobenzofuran-2-Yl)-3-Fluoroprop-2-En-1-Amine Hydrochloride]
Rat Brain Tissue MAO-B
  duration of inhibition of MAO-B enzyme activity: greater than 24 hours

## N#Cc1ccc(OC/C(=C/F)CN)cc1 [Compound 1, (E)-4-((2-(aminomethyl)-3-fluoroallyl)oxy) benzonitrile]
[1]; ninety days, 10 months-old mdx mice, p<0.0001, FIG. 13
  cardiac fibrosis (picrosirius red staining in the heart muscle): significantly reduces
[1]; thirty days, 3 months-old mdx mice, p<0.0001, FIG. 12A
  neutrophil influx in the diaphragm muscle: significantly reduces
[1]; thirty days, 3 months-old mdx mice, p<0.0001, FIG. 12B
  macrophage influx in the diaphragm muscle: significantly reduces
[1]; thirty days, 3 months-old mdx mice, p<0.0001, FIG. 12C
  reactive oxygen species in the diaphragm muscle: significantly reduces
[1]; thirty days, 3 months-old mdx mice, p<0.0001, FIG. 12D
  fibrosis (picrosirius red staining) in the diaphragm muscle: significantly reduces
[2]
  mutagenic potential: did not induce a response indicative of mutagenic potential
